Laboratory results from patent US20030158245A1, “Fused heterocyclic derivatives, their production and use” (priority 2000, published 2003).

Experiments:
[1] = system: Chondromodulin-I (ChM-I) mRNA; test: Assay of Chondromodulin-I (ChM-I) mRNA by RT-PCR in ATDC5 cells; format: cell-based, mouse; conditions: 10^−6 M test compound; ATDC5 cells cultured 7 days; density of ChM-I band determined by bioimaging; no test compound added = 0
Method: Assay of Chondromodulin-I (ChM-I) mRNA:
ATDC5, a substrain derived from mouse teratocarcinoma cell line AT805, was used. ATDC5 cells were cultured at 37° C. for 7 days in the presence of the test compound using a 1:1 mixed medium of Dulbecco's modified Eagle's medium/Ham's F-12 medium containing 5% heat-inactivated fetal bovine serum and 20 μg/ml gentamycin under a condition of 5% carbon dioxide and 95% air. After the cultivation was completed, cells were collected, from which RNA was recovered by using an RNeasy mini kit (manufactured by Quiagen Company), followed by DNAase treatment using MessageClean Kit (manufactured by Genhunter Company) to obtain the total RNA. The amount of ChM-I mRNA in the total RNA was determined by the RT-PCR method. First, cDNA was synthesized from the RNA preparation by reverse transcription reaction using TaKaRa PCR Kit (AMV) ver. 2.1 and random 9-mers (manufactured by Takara Shuzo Co., Ltd.) according to the instruction for the kit. Next, ChM-I gene was amplified specifically by using HotStarTaq DNA polymerase (manufactured by Quiagen company). The following primers were used for the amplification of ChM-I gene: […]
The amplification reaction was carried out in a GeneAmp PCR System 2400 (manufactured by Perkin Elmer Inc.) after warming at 95° C. for 15 minutes, which was followed by 32 repeating reaction cycles of 95° C. for 20 seconds, 58° C. for 10 seconds and 72° C. for 30 seconds. The thus-obtained PCR product was separated by electrophoresis on 2% agarose gel containing ethidium bromide, and the fluorescence intensity of the DNA fragment, which appeared by ultraviolet irradiation at the location corresponding the size (212 bp) expected from the base sequence of mouse ChM-I, was determined. The activity of the test compound to enhance ChM-I expression is expressed as the density of ChM-I band as determined by bioimaging (Table 49). […]

[2] = system: interstitial cells prepared from the bone marrow of the femur of normal rats; test: Action to promote osteogenesis: alkaline phosphatase activity in bone marrow interstitial cells; format: cell-based, Sprague-Dawley rats; parameters: dose or concentration left out as unconfirmed; conditions: rat bone marrow interstitial cells, compound added from day 2 for 5 days; mean ± S.E. (n = 4); all **p<0.01 vs. control
Method: Action to Promote Osteogenesis:
The action was determined in interstitial cells prepared from the bone marrow of the femur of normal rats by using alkaline phosphatase activity as the measure for osteogenesis. In other words, interstitial cells were prepared from the bone marrow of the femur of 7-week old male Sprague-Dawley rats according to the method of Maniatopoulos et al. [Cell Tissue Research, vol. 254, p. 317 (1988)], and cultivated in α-MEM (minimum essential medium) containing dexamethasone (10^−7 M) and β-glycerophosphoric acid (10^−2 M) to facilitate formation of the calcified osteoid tissue. After one week, the primary culture cells that reached the confluence were recovered by treating with a solution containing 0.25% trypsin and 0.2% EDTA and were subcultured in culture plates at a cell density of […] (day 0 of the cultivation). […] After the cells were washed with a phosphate buffer solution, 0.2% Nonidet P-40 was added to the cells, which were homogenized and centrifuged at 3000 rpm for 10 minutes, and the supernatant was subjected to the determination of alkaline phosphatase activity according to the method of Lowry et al. [Journal of Biological Chemistry, vol. 207, p. 19 (1954)]. Student's t-test was used for the statistical treatment.

SMILES | melting point | ChM-I expression-enhancing activity [1] | Alkaline phosphatase activity (A405) [2]
CCCS(=O)(=O)c1sc(C(N)=O)c2c1-c1c(cnn1C)CC2 [Example 70, 4,5-Dihydro-1-methyl-8-n-propylsulfonyl-1H-thieno[3,4-g]indazole-6-carboxamide] | – | 47 | 0.25 ± 0.02**
Cn1ncc2c1-c1c(Nc3ccccc3)sc(C(N)=O)c1CC2 [Example 28, 4,5-Dihydro-1-methyl-8-phenylamino-1H-thieno[3,4-g]indazole-6-carboxamide] | 140 to 141 °C | – | –
CCOC(=O)N1C2=C(CCc3csc(Oc4ccccc4)c32)CN1C [Example 143, 4,5-dihydro-2-methyl-8-phenoxy-2H-thieno[3,4-g]indazole-1-carboxylic Acid Ethyl Ester] | 89 to 90 °C | – | –
CN(C(=O)c1ccccc1)c1sc(C(N)=O)c2c1-c1oncc1CC2 [Example 18, 8-[(N-Benzoyl-N-methyl)amino]-4,5-dihydrothieno[3,4-g]-1,2-benzisoxazole-6-carboxamide] | 197 to 198 °C | – | –
Cn1cc2c(n1)-c1c(N(C(=O)OCc3ccccc3)c3ccccc3)sc(C(N)=O)c1CC2 [Example 22, 8-[(N-Benzyloxycarbonyl-N-phenyl)amino]-4,5-dihydro-2-methyl-2H-thieno[3,4-g]indazole-6-carboxamide] | 220 to 221 °C | – | –
CC(C)(C)OC(=O)c1sc(Nc2ccc(Cl)cc2)c2c1CCc1cnoc1-2 [Example 3, 8-(4-Chlorophenylamino)-4,5-dihydrothieno[3,4-g]-1,2-benzisoxazole-6-carboxylic Acid t-butyl Ester] | 197 to 198 °C | – | –
NC(=O)c1sc(Nc2ccc(Cl)cc2)c2c1CCc1cnoc1-2 [Example 19, 8-(4-Chlorophenylamino)-4,5-dihydrothieno[3,4-g]-1,2-benzisoxazole-6-carboxamide] | 224 to 225 °C | – | –
CCOC(=O)c1sc(OC)c2c1CCc1cnn(C)c1-2 [Example 263] | 82 to 84 °C | – | –
CC(=O)c1sc(Oc2ccc3c(c2)OCO3)c2c1CCc1cnn(C)c1-2 [Example 251, 1-[4,5-Dihydro-8-(3,4-methylenedioxyphenoxy)-1-methyl-1H-thieno[3,4-g]indazol-6-yl]-1-ethanone] | – | 87 | 1.33 ± 0.13**
CCCCc1sc(C(=O)OCC)c2c1-c1c(cnn1C)CC2 [Example 78, 8-n-Butyl-4,5-dihydro-1-methyl-1H-thieno[3,4-g]indazole-6-carboxylic Acid Ethyl Ester] | 80 to 81 °C | – | –
CCOC(=O)c1sc(C)c2c1CCc1cnn(Cc3ccccc3)c1-2 [Example 128, 1-Benzyl-4,5-dihydro-8-methyl-1H-thieno[3,4-g]indazole-6-carboxylic Acid Ethyl Ester] | 131 to 132 °C | – | –
CCNC(=O)c1sc(Oc2ccc3c(c2)OCO3)c2c1CCc1cnn(C)c1-2 [Example 255, N-ethyl-4,5-dihydro-8-(3,4-methylenedioxyphenoxy)-1-methyl-1H-thieno[3,4-g]indazole-6-carboxamide] | – | 106 | 1.82 ± 0.06**
CN(C(=O)c1ccccc1)c1sc(C(=O)O)c2c1-c1oncc1CC2 [Example 11, 8-[(N-Benzoyl-N-methyl)amino]-4,5-dihydrothieno[3,4-g]-1,2-benzisoxazole-6-carboxylic Acid] | 232 to 233 °C (dec.) | – | –

Now from value to molecule, other results behind:

melting point | SMILES | ChM-I expression-enhancing activity [1] | Alkaline phosphatase activity (A405) [2]
210 to 211 °C | Cn1cc2c(n1)-c1c(Oc3ccc(C=O)cc3)sc(C(N)=O)c1CC2 [Example 380, 8-(4-Formylphenoxy)-4,5-dihydro-2-methyl-2H-thieno[3,4-g]indazole-6-carboxamide] | – | –
148 to 149 °C | CC(C)(C)OC(=O)c1sc(Nc2ccccc2)c2c1CCc1cnoc1-2 [Example 4, 4,5-Dihydro-8-phenylaminothieno[3,4-g]-1,2-benzisoxazole-6-carboxylic Acid t-butyl Ester] | – | –
216 to 217 °C | CC(C)OP(=O)(/C=C/c1ccc(Oc2sc(C(N)=O)c3c2-c2nn(C)cc2CC3)cc1)OC(C)C [Example 380, 8-{4-((E)-2-diisopropoxyphosphorylvinyl)phenoxy}-4,5-dihydro-2-methyl-2H-thieno[3,4-g]indazole-6-carboxamide] | – | –
278 to 279 °C | O=C(O)c1sc(N(C(=O)OCc2ccccc2)c2ccccc2)c2c1CCc1c[nH]nc1-2 [Example 14, 8-[(N-Benzyloxycarbonyl-N-phenyl)amino]-4,5-dihydro-1H-thieno[3,4-g]indazole-6-carboxylic Acid] | – | –
211 to 212 °C (dec.) | O=C(O)c1sc(Nc2ccccc2)c2c1CCc1cnoc1-2 [Example 13, 4,5-Dihydro-8-phenylaminothieno[3,4-g]-1,2-benzisoxazole-6-carboxylic Acid] | – | –
154 to 156 °C | COc1sc(C(N)=O)c2c1-c1c(cnn1C)CC2 [Example 279] | – | –
193 to 194 °C | CNC(=O)c1sc(Nc2ccccc2)c2c1CCc1cnoc1-2 [Example 33, N-Methyl-4,5-dihydro-8-(phenylamino)thieno[3,4-g]-1,2-benzisoxazole-6-carboxamide] | – | –
233 to 234 °C | NC(=O)c1sc(Nc2ccccc2)c2c1CCc1cn[nH]c1-2 [Example 29, 4,5-Dihydro-8-phenylamino-1H-thieno[3,4-g]indazole-6-carboxamide] | – | –
120 to 121 °C | CCOC(=O)c1sc(C)c2c1CCc1cnn(CC(F)(F)F)c1-2 [Example 127, 4,5-Dihydro-8-methyl-1-(2,2,2-trifluoroethyl)-1H-thieno[3,4-g]indazole-6-carboxylic Acid Ethyl Ester] | – | –
240 to 241 °C | NC(=O)c1sc(N(C(=O)OCc2ccccc2)c2ccccc2)c2c1CCc1c[nH]nc1-2 [Example 21, 8-[(N-Benzyloxycarbonyl-N-phenyl)amino]-4,5-dihydro-1H-thieno[3,4-g]indazole-6-carboxamide] | – | –
192 to 193 °C | Cn1ncc2c1-c1c(csc1S(C)(=O)=O)CC2 [Example 490, 1-Methyl-8-methylsulfonyl-4,5-dihydro-1H-thieno[3,4-g]indazole] | – | –
118 to 119 °C | CCOC(=O)c1sc(C)c2c1CCc1cnn(C)c1-2 [Example 73, 4,5-Dihydro-1,8-dimethyl-1H-thieno[3,4-g]indazole-6-carboxylic Acid Ethyl Ester] | – | –
250 to 252 °C | COc1sc(C(=O)O)c2c1-c1c(cnn1C)CC2 [Example 271] | – | –
232 to 233 °C (dec.) | O=C(O)c1sc(Nc2ccc(Cl)cc2)c2c1CCc1cnoc1-2 [Example 12, 8-(4-Chlorophenylamino)-4,5-dihydrothieno[3,4-g]-1,2-benzisoxazole-6-carboxylic Acid] | – | –
